One block for each compound: values may come before it. Active and inactive are the calls of the source. The calls are words filed in the database; no cut-off is given here.
Key:
[1] = tested on: Nucleic Acid; experiment: Binding affinity to d(TGGGGT) quadruplex DNA by NMR analysis; format: nucleic-acid assay
[2] = tested on: HeLa; experiment: Cell cycle arrest in human HeLa cells assessed as accumulation at S phase at 3.5 uM after 120 hrs by flow cytometry (reference value: 31%); format: functional
[3] = tested on: HeLa; experiment: Cell cycle arrest in human HeLa cells assessed as accumulation at G2/M phase at 3.5 uM after 24 hrs by flow cytometry (reference value: 16%); format: functional
[4] = tested on: HeLa; experiment: Cell cycle arrest in human HeLa cells assessed as accumulation at sub-G1 phase at 3.5 uM after 24 hrs by flow cytometry (reference value: 3%); format: functional
[5] = tested on: HeLa; experiment: Cell cycle arrest in human HeLa cells assessed as accumulation at G2/M phase at 3.5 uM after 96 hrs by flow cytometry (reference value: 11%); format: functional
[6] = tested on: HeLa; experiment: Cell cycle arrest in human HeLa cells assessed as accumulation at S phase at 3.5 uM after 96 hrs by flow cytometry (reference value: 22%); format: functional
[7] = tested on: Nucleic Acid; experiment: Binding affinity to d(TGGGGT) quadruplex DNA at compound/DNA ratio 4:1 by isothermal titration calorimetry analysis; format: nucleic-acid assay
[8] = tested on: HeLa; experiment: Induction of apoptosis in human HeLa cells at 3.5 uM after 72 hrs using Annexin V-FITC vs PI staining by flow cytometry (reference value: 3.9%); format: functional
[9] = tested on: HeLa; experiment: Cell cycle arrest in human HeLa cells assessed as accumulation at G2/M phase at 3.5 uM after 72 hrs by flow cytometry (reference value: 14%); format: functional
[10] = tested on: HeLa; experiment: Cell cycle arrest in human HeLa cells assessed as accumulation at S phase at 3.5 uM after 24 hrs by flow cytometry (reference value: 27%); format: functional
[11] = tested on: HeLa; experiment: Induction of apoptosis in human HeLa cells at 3.5 uM after 96 hrs using Annexin V-FITC vs PI staining by flow cytometry (reference value: 5.3%); format: functional
[12] = tested on: BJ; experiment: Induction of DNA damage in human BJ cells expressing hTERT and SV40 early region at 0.5 uM after 24 hrs by immunofluorescence analysis; format: functional, cell-based
[13] = tested on: HeLa; experiment: Induction of apoptosis in human HeLa cells at 3.5 uM after 24 hrs using Annexin V-FITC vs PI staining by flow cytometry (reference value: 3.8%); format: functional
[14] = tested on: BJ; experiment: Induction of telomere damage in human BJ cells expressing hTERT and SV40 early region assessed as gammaH2AX/TRF1 colocalizations at 0.1 to 0.5 uM after 24 hrs by immunofluorescence analysis; format: functional
[15] = tested on: HeLa; experiment: Cell cycle arrest in human HeLa cells assessed as accumulation at G0-G1 phase at 3.5 uM after 72 hrs by flow cytometry (reference value: 64%); format: functional
[16] = tested on: HeLa; experiment: Cell cycle arrest in human HeLa cells assessed as accumulation at G0-G1 phase at 3.5 uM after 120 hrs by flow cytometry (reference value: 51%); format: functional
[17] = tested on: HeLa; experiment: Cell cycle arrest in human HeLa cells assessed as accumulation at G0-G1 phase at 3.5 uM after 24 hrs by flow cytometry (reference value: 57%); format: functional
[18] = tested on: HeLa; experiment: Induction of apoptosis in human HeLa cells at 3.5 uM after 120 hrs using Annexin V-FITC vs PI staining by flow cytometry (reference value: 8.3%); format: functional
[19] = tested on: HeLa; experiment: Cell cycle arrest in human HeLa cells assessed as accumulation at S phase at 3.5 uM after 72 hrs by flow cytometry (reference value: 22%); format: functional
[20] = tested on: HeLa; experiment: Cytotoxicity against human HeLa cells assessed as decrease in cell survival; format: functional, cell-based
[21] = tested on: HeLa; experiment: Cell cycle arrest in human HeLa cells assessed as accumulation at sub-G1 phase at 3.5 uM after 120 hrs by flow cytometry (reference value: 14%); format: functional
[22] = tested on: HeLa; experiment: Cell cycle arrest in human HeLa cells assessed as accumulation at sub-G1 phase at 3.5 uM after 72 hrs by flow cytometry (reference value: 5%); format: functional
[23] = tested on: HeLa; experiment: Cell cycle arrest in human HeLa cells assessed as accumulation at G2/M phase at 3.5 uM after 120 hrs by flow cytometry (reference value: 18%); format: functional
[24] = tested on: HeLa; experiment: Cell cycle arrest in human HeLa cells assessed as accumulation at G0-G1 phase at 3.5 uM after 96 hrs by flow cytometry (reference value: 67%); format: functional
[25] = tested on: BJ; experiment: Induction of DNA damage in human BJ cells expressing hTERT and SV40 early region assessed as damaged foci colocalized with TRF1 at 0.1 to 0.5 uM after 24 hrs by deconvolution microscopy analysis; format: functional, cell-based
[26] = tested on: HeLa; experiment: Cell cycle arrest in human HeLa cells assessed as accumulation at sub-G1 phase at 3.5 uM after 96 hrs by flow cytometry (reference value: 6%); format: functional
[27] = tested on: Nucleic Acid; experiment: Binding affinity to d(TGGGGT) quadruplex DNA by chemical shift perturbation method; format: nucleic-acid assay
[28] = tested on: Nucleic Acid; experiment: Displacement of distamycin-A from d(TGGGGT) quadruplex DNA at compound/DNA ratio 4:1 by isothermal titration calorimetry analysis; format: nucleic-acid assay

Structure (SMILES): CC1CCCC(C)N1Cc1c(O)ccc2c(=O)c(-c3nc4ccccc4s3)c(N)oc12 (stereo unspecified)
- Activity [2]: 26%
- Activity [3]: 20%
- Activity [4]: 5%
- Activity [5]: 32%
- Activity [6]: 28%
- Activity [7]: Active
- Activity [8]: 7.1%
- Activity [9]: 37%
- Activity [10]: 28%
- Activity [11]: 13.9%
- Activity [12]: Active
- Activity [13]: 4.6%
- Activity [14]: 50%
- Activity [15]: 40%
- Activity [16]: 43%
- Activity [17]: 52%
- Activity [1]: Active
- Activity [18]: 30.6%
- Activity [19]: 23%
- inhibition [20]: Dose-dependent effect
- Activity [21]: 38%
- Activity [22]: 12%
- Activity [23]: 31%
- Activity [24]: 40%
- Activity [25]: Active
- Activity [26]: 19%

Structure (SMILES): Cc1oc2c(CN3CCCC3)c(O)ccc2c(=O)c1-c1nc2ccccc2s1
- Activity [1]: inactive

Structure (SMILES): Cc1oc2c(CN(C)C)c(O)ccc2c(=O)c1-c1nc2ccccc2s1
- Activity [1]: inactive

Structure (SMILES): Nc1oc2c(CN3CCCCCC3)c(O)ccc2c(=O)c1-c1nc2ccccc2s1
- Activity [7]: Active
- Activity [12]: Active
- Activity [14]: 50%
- Activity [1]: Active
- Activity [25]: Active

Structure (SMILES): CC1(C)C[C@H]2CN(Cc3c(O)ccc4c(=O)c(-c5nc6ccccc6s5)c(N)oc34)[C@](C)(C2)C1
- Activity [1]: inactive

Structure (SMILES): CCN1CCN(Cc2c(O)ccc3cc(-c4nc5ccccc5s4)c(=O)oc23)CC1
- Activity [27]: Active

Structure (SMILES): Cn1cc(NC(=O)c2cc(NC(=O)c3cc(NC=O)cn3C)cn2C)cc1C(=O)NCCC(=N)N
- Activity [12]: Active
- Activity [25]: Active

Structure (SMILES): O=c1c(-c2nc3ccccc3s2)coc2c(CN3CCCCC3)c(O)ccc12
- Activity [1]: Active

Structure (SMILES): CCOC(=O)N1CCN(Cc2c(O)ccc3cc(-c4nc5ccccc5s4)c(=O)oc23)CC1
- Activity [27]: inactive

Structure (SMILES): O=c1oc2c(CN3CCN(c4ccccc4)CC3)c(O)ccc2cc1-c1nc2ccccc2s1
- Activity [27]: inactive

Structure (SMILES): O=c1c(-c2nc3ccccc3s2)coc2c(CN3CCOCC3)c(O)ccc12
- Activity [1]: Active

Structure (SMILES): O=c1c(-c2nc3ccccc3s2)coc2cc(O)ccc12
- Activity [1]: inactive

Structure (SMILES): CN1CCN(Cc2c(O)ccc3cc(-c4nc5ccccc5s4)c(=O)oc23)CC1
- Activity [27]: Active

Structure (SMILES): O=c1oc2c(CN(CCO)CCO)c(O)ccc2cc1-c1nc2ccccc2s1
- Activity [27]: Active

Structure (SMILES): CC1CCN(Cc2c(O)ccc3c(O)c(-c4nc5ccccc5s4)c(=N)oc23)CC1
- Activity [1]: Active

Structure (SMILES): CC1CCCN(Cc2c(O)ccc3c(O)c(-c4nc5ccccc5s4)c(=N)oc23)C1 (stereo unspecified)
- Activity [1]: Active

Structure (SMILES): CCc1cc2c(=O)c(-c3nc4ccccc4s3)coc2c(CN2CCCC2)c1O
- Activity [1]: inactive

Structure (SMILES): O=c1oc2c(CN3CCN(CCO)CC3)c(O)ccc2cc1-c1nc2ccccc2s1
- Activity [7]: Active
- Activity [28]: Active

More lines, main results first:

- Activity [1]: Active
Structure (SMILES): CCC1CCCCN1Cc1c(O)ccc2c(=O)c(-c3nc4ccccc4s3)coc12 (stereo unspecified)

- Activity [1]: Active
Structure (SMILES): O=c1c(-c2nc3ccccc3s2)coc2c(CN3CCCC3)c(O)ccc12

- Activity [1]: Active
Structure (SMILES): CN(C)Cc1c(O)ccc2c(=O)c(-c3nc4ccccc4s3)coc12

- Activity [7]: Active
- Activity [1]: Active
Structure (SMILES): CCN(CC)Cc1c(O)ccc2c(=O)c(-c3nc4ccccc4s3)coc12
- Activity [12]: Active
- Activity [14]: 50%
- Activity [25]: Active

- Activity [1]: Active
Structure (SMILES): CC1CCN(Cc2c(O)ccc3c(=O)c(-c4nc5ccccc5s4)coc23)CC1

- Activity [1]: inactive
Structure (SMILES): CCc1cc2c(=O)c(-c3nc4ccccc4s3)coc2c(CN(CC)CC)c1O

- Activity [1]: Active
Structure (SMILES): CC1CCCCN1Cc1c(O)ccc2c(=O)c(-c3nc4ccccc4s3)coc12 (stereo unspecified)

- Activity [1]: Active
Structure (SMILES): CC1CCCN(Cc2c(O)ccc3c(=O)c(-c4nc5ccccc5s4)coc23)C1 (stereo unspecified)
